# Results reported in US20210169953A1, “COMPOSITION FOR TYPE IV ALLERGY” (SONE FARM CO., LTD, priority 2018, published 2021).
# Several values for one entry are separate records, joined by “and”; a condition that tells them apart may be missing. Equal values may be shown once.
# Test system: picryl chloride-induced mouse contact dermatitis model
# Assay: Suppression action on mouse contact dermatitis model by application on the auricle (auricle thickness)
# Type: in vivo, mouse (male BALB/cA Jcl)
# Method: From the supernatant of a culture broth obtained by cultivating the strain IJH-SONE68 in modified-SDM medium, exopolysaccharides produced by the strain were purified by the method disclosed in Example 2 to be supplied to experiments (1 mg/mL). The same concentration was used for a dipotassium glycyrrhizinate aqueous solution used as a control of an existing anti-inflammatory drug.
# The mice used were male BALB/cA Jcl mice (7-week old at the time of arrival, CLEA Japan, Inc.). Five mice were housed in a breeding cage and bred in an animal breeding room in which environment was adjusted to temperature of 20 to 26° C., humidity of 40 to 60%, and lighting time of 12 hours (8:00 to 20:00). The mice were allowed to freely ingest solid feed MF (Oriental Yeast Co., Ltd.). In addition, with regard to a drinking water, the mice were allowed to freely ingest a purified water.
# After carried in the cage, the mice were acclimated for 7 days. […]
# On Day 6, the thickness of right auricle of the mice was measured in advance with a caliper, and then an allergic reaction was induced by applying 20 μL of a 1 w/v % picryl chloride solution on the front and back of the right auricle. […] Eighteen hours later (Day 7), the thickness of the auricle was measured, and the difference before and after the induction (A auricle thickness [mm]) was compared among the groups. […] Tukey's test or t test by Welch's method was used for a significant difference test among the groups, and it was determined that there was a significant difference when a risk factor (p value) was less than 0.05.
smiles,measurement,setting,value
CC1(C)[C@@H](O[C@H]2O[C@H](C(=O)[O-])[C@@H](O)[C@H](O)[C@H]2O[C@@H]2O[C@H](C(=O)[O-])[C@@H](O)[C@H](O)[C@H]2O)CC[C@]2(C)[C@H]3C(=O)C=C4[C@@H]5C[C@@](C)(C(=O)O)CC[C@]5(C)CC[C@@]4(C)[C@]3(C)CC[C@@H]12.[K+].[K+] [dipotassium glycyrrhizinate],"Increase in auricle thickness due to inflammation vs control group (FIG. 7, Tukey test)","application, p<0.1",tended to be suppressed
same,"Increased amount of auricle thickness, Average","group average, 20 μL of 1 mg/mL sample applied on right auricle 2 h after induction, measured 18 h later, control 0.28",0.184 mm
same,"Increased amount of auricle thickness, each mouse","individual mice, 20 μL of 1 mg/mL sample applied on right auricle 2 h after induction, measured 18 h later",0.20 mm and 0.06 mm and 0.22 mm (3×)
